Columns and labels:
[1] = system: Trichomonas vaginalis (clin. isol.); assay: MIC by broth dilution, Trichomonas vaginalis; type: cell-based; conditions: code TVL; approx. 10^5 cells/ml; Trichomonas Culture Medium Base + 10% horse serum; 48 h, 37° C.
Experimental: Inocula were approximately 10^4 cfu. Incubation was for 48 hours at 37° C. in nitrogen-carbon dioxide-hydrogen (80:10:10). […] The inoculum was approximately 10^5 cells/ml. After 48 hours of incubation at 37° C. in nitrogen-carbon dioxide-hydrogen (80:10:10) the wells were viewed directly with a microscope to detect the presence of viable (motile) protozoa.

[2] = system: Gardnerella vaginalis ATCC 14018; assay: MIC by agar dilution, Gardnerella vaginalis; type: cell-based; conditions: code 332; Casman medium + rabbit blood; approx. 10^4 cfu; 48 h, 37° C.
[3] = system: Gram-positive and Gram-negative bacteria and fungi; conditions: according to U.S. Pat. No. 3,914,257; fungi incl. Trichophyton mentagrophytes and Candida albicans; cited from earlier work

MIC [1] [µg/mL] | MIC [2] [µg/mL] | SMILES | in vitro antimicrobial activity [3]
2 |  | CNC1=CC(=O)c2c(O)c3c(c(O)c2C1=O)OC1(CCc2cc4cc(C(=O)OC)oc(=O)c4c(O)c2O1)C3 (stereo not shown) [Example 32, 7'-methylamino γ-rubromycin] | 
8 | 2 | CCNC1=CC(=O)c2c(O)c3c(c(O)c2C1=O)OC1(C3)CC(O)c2cc3cc(C(=O)OC)oc(=O)c3c(O)c2O1 (stereo not shown) [Example 10, 7'-ethylamino purpuromycin] | 
 |  | COC(=O)c1cc2cc3c(c(O)c2c(=O)o1)OC1(Cc2c(O)c4c(c(O)c2O1)C(=O)C(OC)=CC4=O)CC3O (stereo not shown) [purpuromycin] | active in vitro against both Gram-positive and Gram-negative bacteria and fungi

Source: patent US5530133A, “7'-amino-naphthazarin antibiotic derivatives” (Gruppo Lepetit SpA, priority 1995, dated 1996)
